Laboratory results: ChEMBL document CHEMBL4342407, “Thieno[2,3-d]pyrimidine as a promising scaffold in medicinal chemistry: Recent advances” (Bioorg Med Chem, 2019)

What was measured:
[1] = species on record: Homo sapiens; experiment: Selectivity ratio of IC50 for CDK2/cyclin E (unknown origin) expressed in baculovirus infected Sf9 insect cells to IC50 for CDK4/cyclin D1 (unknown origin) expressed in baculovirus infected Sf9 insect cells
[2] = biological target: Cyclin-dependent kinase 4/cyclin D1 (Homo sapiens, UniProt P11802); experiment: Inhibition of CDK4/cyclin D1 (unknown origin) expressed in baculovirus infected Sf9 insect cells using GST-Rb as substrate in presence of [33P] ATP incubated for 30 mins
Sequence of Cyclin-dependent kinase 4/cyclin D1 (P11802 whole entry): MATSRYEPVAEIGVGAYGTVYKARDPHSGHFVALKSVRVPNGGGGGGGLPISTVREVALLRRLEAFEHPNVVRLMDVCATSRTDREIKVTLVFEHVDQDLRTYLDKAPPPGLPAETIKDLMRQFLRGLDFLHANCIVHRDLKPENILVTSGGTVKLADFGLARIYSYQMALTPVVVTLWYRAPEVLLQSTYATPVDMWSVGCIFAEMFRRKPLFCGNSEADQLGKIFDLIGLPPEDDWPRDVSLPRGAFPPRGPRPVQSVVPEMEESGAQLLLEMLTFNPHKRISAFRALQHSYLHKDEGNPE
Sequence of Cyclin-dependent kinase 4/cyclin D1 (P24385 whole entry, further chain): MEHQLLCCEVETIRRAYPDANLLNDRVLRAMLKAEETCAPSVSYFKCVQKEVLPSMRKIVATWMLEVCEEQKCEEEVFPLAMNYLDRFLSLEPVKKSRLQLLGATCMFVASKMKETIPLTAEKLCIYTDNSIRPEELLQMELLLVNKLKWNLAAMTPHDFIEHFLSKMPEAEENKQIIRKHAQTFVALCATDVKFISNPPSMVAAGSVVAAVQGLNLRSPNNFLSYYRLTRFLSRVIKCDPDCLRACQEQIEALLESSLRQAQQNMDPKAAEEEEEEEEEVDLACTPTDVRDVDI

[3] = biological target: Cyclin-dependent kinase 2/cyclin E1 (Homo sapiens, UniProt P24941); experiment: Inhibition of CDK2/cyclin E (unknown origin) expressed in baculovirus infected Sf9 insect cells using GST-Rb as substrate in presence of [33P] ATP incubated for 30 mins
[4] = Inhibition of Influenza A virus H3N2 Neuraminidase
[5] = Ulcerogenic activity in Sprague-Dawley rat assessed as ulcer index at 20 mg/kg, ip pretreated followed by pylorus ligation and measured at 4 hrs post ligation; assay type: toxicity, organism-based; conditions: in vivo
[6] = test system: Mus musculus; experiment: Analgesic activity in Swiss albino mouse assessed as protection against acetic acid-induced writhing at 15 mg/kg, po pretreated for 30 mins followed by acetic acid challenge and measured after 20 mins relative to control; assay type: functional
[7] = test system: Rattus norvegicus; experiment: Antiinflammatory activity in Sprague-Dawley rat assessed as inhibition of carrageenan-induced edema at 15 mg/kg, po pretreated for 1 hr followed by carrageenan challenge and measured after 4 hrs by mercury plethysmometer relative to control; assay type: functional
[8] = test system: Hepatovirus A; experiment: Antiviral activity against Hepatitis A virus infected in HepG2 cells assessed as virus inhibition at 40 ug/L incubated overnight with virus followed by inoculation and measured after 1 hr by crystal violet staining based plaque reduction assay; assay type: functional
[9] = biological target: T1, Adenosine receptor A1 (Homo sapiens, UniProt P30542); experiment: Displacement of [3H]-CCPA binding from human A1 receptor expressed in CHO cells by radioligand competitive binding assay; assay type: cell-based
T1 sequence (P30542 whole entry): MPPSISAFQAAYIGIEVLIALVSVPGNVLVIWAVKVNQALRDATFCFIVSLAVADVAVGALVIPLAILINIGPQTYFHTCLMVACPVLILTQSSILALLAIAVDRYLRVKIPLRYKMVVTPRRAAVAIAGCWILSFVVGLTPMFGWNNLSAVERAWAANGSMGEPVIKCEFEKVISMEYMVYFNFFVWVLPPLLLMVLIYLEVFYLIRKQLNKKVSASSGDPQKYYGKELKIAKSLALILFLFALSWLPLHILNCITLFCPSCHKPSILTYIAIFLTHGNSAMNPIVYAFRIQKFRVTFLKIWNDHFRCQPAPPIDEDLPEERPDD

[10] = species on record: Homo sapiens; experiment: Selectivity ratio of Ki for human A1 receptor expressed in CHO cells to Ki for human A3 receptor expressed in CHO cells; assay type: cell-based
[11] = biological target: Adenosine receptor A2a (Homo sapiens, UniProt P29274); experiment: Displacement of [3H]-NECA from human A2A receptor expressed in CHO cells by radioligand competitive binding assay; assay type: cell-based
Sequence of Adenosine receptor A2a (P29274 whole entry): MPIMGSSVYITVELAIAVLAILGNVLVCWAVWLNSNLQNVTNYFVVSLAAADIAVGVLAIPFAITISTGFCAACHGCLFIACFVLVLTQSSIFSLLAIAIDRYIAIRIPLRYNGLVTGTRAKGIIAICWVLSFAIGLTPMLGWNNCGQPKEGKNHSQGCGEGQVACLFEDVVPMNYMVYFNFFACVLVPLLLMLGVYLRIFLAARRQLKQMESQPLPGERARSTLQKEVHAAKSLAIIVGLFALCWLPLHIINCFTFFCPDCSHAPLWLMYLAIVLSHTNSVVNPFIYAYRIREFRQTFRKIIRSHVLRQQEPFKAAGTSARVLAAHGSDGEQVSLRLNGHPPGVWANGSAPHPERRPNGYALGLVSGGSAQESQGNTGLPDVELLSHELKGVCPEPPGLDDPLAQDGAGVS

[12] = species on record: Homo sapiens; experiment: Selectivity ratio of Ki for human A2A receptor expressed in CHO cells to Ki for human A3 receptor expressed in CHO cells; assay type: cell-based
[13] = biological target: T2, Adenosine receptor A3 (Homo sapiens, UniProt P0DMS8); experiment: Displacement of [3H]-HEMADO from human A3 receptor expressed in CHO cells by radioligand competitive binding assay; assay type: cell-based
T2 sequence (P0DMS8 whole entry): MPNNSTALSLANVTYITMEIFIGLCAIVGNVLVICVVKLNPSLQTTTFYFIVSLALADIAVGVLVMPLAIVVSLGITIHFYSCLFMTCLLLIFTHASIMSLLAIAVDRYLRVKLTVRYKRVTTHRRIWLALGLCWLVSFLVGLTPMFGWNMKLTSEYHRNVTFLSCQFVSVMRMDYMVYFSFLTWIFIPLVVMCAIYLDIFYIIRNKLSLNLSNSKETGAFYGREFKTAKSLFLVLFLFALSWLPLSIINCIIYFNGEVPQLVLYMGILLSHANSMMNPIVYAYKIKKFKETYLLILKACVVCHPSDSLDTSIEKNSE

[14] = species on record: Homo sapiens; experiment: Selectivity ratio of Ki for human A1 receptor expressed in CHO cells to Ki for human A2A receptor expressed in CHO cells; assay type: cell-based
[15] = test system: Human alphaherpesvirus 1; experiment: Antiviral activity against Herpes simplex virus 1 at 50 ug/10^5; assay type: functional
[16] = test system: Human alphaherpesvirus 1; experiment: Antiviral activity against Herpes simplex virus 1 at 20 ug/10^5; assay type: functional
[17] = test system: HCT-116; experiment: Antiproliferative activity against human HCT116 after 18 hrs by MTT assay; assay type: functional, cell-based; conditions: HCT-116, 18 h
[18] = test system: A549; experiment: Antiproliferative activity against human A549 after 18 hrs by MTT assay; assay type: functional, cell-based; conditions: A549, 18 h
[19] = test system: Klebsiella pneumoniae; experiment: Antibacterial activity against Klebsiella pneumoniae assessed as zone inhibition at 100 ug/ml; assay type: functional; conditions: read-out: IZ
[20] = test system: Escherichia coli; experiment: Antibacterial activity against Escherichia coli assessed as zone inhibition at 100 ug/ml; assay type: functional; conditions: read-out: IZ
[21] = test system: Bacillus subtilis; experiment: Antibacterial activity against Bacillus subtilis assessed as zone inhibition at 100 ug/ml; assay type: functional; conditions: read-out: IZ
[22] = test system: Staphylococcus aureus; experiment: Antibacterial activity against Staphylococcus aureus assessed as zone inhibition at 100 ug/ml; assay type: functional; conditions: read-out: IZ
[23] = test system: Rattus norvegicus; experiment: Antiinflammatory activity in gamma irradiated rat assessed as reduction in NFkappaB level in liver tissue homogenates at 150 mg/kg, ip administered once daily for 7 consecutive days by ELISA (reference value: 258.33 +/- 4.216 pg/ml); assay type: functional
[24] = test system: Rattus norvegicus; experiment: Antiinflammatory activity in gamma irradiated rat assessed as reduction in COX-2 level in liver tissue homogenates at 150 mg/kg, ip administered once daily for 7 consecutive days by ELISA (reference value: 89.50 +/- 2.617 ng/ml); assay type: functional
[25] = test system: Rattus norvegicus; experiment: Antiinflammatory activity in gamma irradiated rat assessed as reduction in serum IL-6 level at 150 mg/kg, ip administered once daily for 7 consecutive days by ELISA (reference value: 103.87 +/- 3.273 pg/ml); assay type: functional
[26] = test system: Rattus norvegicus; experiment: Antiinflammatory activity in gamma irradiated rat assessed as reduction in serum TNFalpha level at 150 mg/kg, ip administered once daily for 7 consecutive days by ELISA (reference value: 105.07 +/- 3.925 pg/ml); assay type: functional

For CC(N)c1csc(/C=N/Nc2ncnc3sc(C(C)(C)CF)cc23)n1 (configuration not stated), which Ratio IC50 [1] is on record?
Its Ratio IC50 is 14.7.

And the IC50 [2]?
Its IC50 is 0.046 µM.

And the IC50 [3]?
Its IC50 is 0.68 µM.

Which IC50 [4] does the source give for O=C1c2ccccc2C(=O)N1Nc1nc(-c2c[nH]c3ccccc23)nc2sc3c(c12)CCCC3 here?
The IC50 was 0.067 µM.

For CC(=O)Cc1c(C(C)C)sc2nc(C)[nH]c(=O)c12, which UI [5] is on record?
The UI was 1.1.

What about the Activity [6] of the same compound?
The Activity was 59%.

And the inhibition in vivo at 15 mg/kg [7]?
The inhibition in vivo at 15 mg/kg was 74.5%.

With CC(=O)OC[C@H]1O[C@@H](Sc2nc3sc4c(c3c(=O)n2Cc2ccccc2)CCCCC4)[C@H](OC(C)=O)[C@@H](OC(C)=O)[C@@H]1OC(C)=O as the compound, how does the “inhibition (INH)” value [8] read?
Its value is 55%.

What does the source list for Nc1nc(-n2ccnc2)c2c3c(sc2n1)CCCC3?
Ki [9]: 10.4 µM; Ratio Ki [10]: > 0.35; Ki [11]: 4.06 µM; Ratio Ki [12]: > 0.14; Ki [13]: > 30 µM; Ratio Ki [14]: 2.6

Which IC50 [4] does the source give for O=CC1CN(c2nc(-c3c[nH]c4ccccc34)nc3sc4c(c23)CCCC4)N=C1c1ccccc1 (configuration not stated) here?
Its IC50 is 0.089 µM.

Which Activity [15] does the source give for COCCSc1nc(C)nc2sc3c(c12)-c1ccccc1CC3 here?
Its Activity is 45%.

And the Activity [16]?
The Activity was 5%.

Which UI [5] does the source give for CC(=O)Cc1c(C(C)C)sc2nc(S)[nH]c(=S)c12 here?
Its UI is 1.1.

What about the Activity [6] of the same compound?
The Activity was 60%.

And the inhibition in vivo at 15 mg/kg [7]?
The inhibition in vivo at 15 mg/kg was 71.6%.

Which IC50 [17] does the source give for Cc1cc2c(OCc3cc(-c4ccc(Cl)cc4)no3)ncnc2s1 here?
Its IC50 is 6.69 µM.

And the IC50 [18]?
Its IC50 is 2.79 µM.

For FC(F)(F)Oc1ccc(C2=NOC(c3cc4cncnc4s3)C2)cc1 (configuration not stated), which zone of inhibition at 100 µg/mL [19] is on record?
Its zone of inhibition at 100 µg/mL is 15 mm.

And the zone of inhibition at 100 µg/mL [20]?
The zone of inhibition at 100 µg/mL was 16.5 mm.

And the zone of inhibition at 100 µg/mL [21]?
Its zone of inhibition at 100 µg/mL is 12.5 mm.

And the zone of inhibition at 100 µg/mL [22]?
Its zone of inhibition at 100 µg/mL is 14.5 mm.

With c1cnc(C2=NOC(c3cc4cncnc4s3)C2)cn1 (configuration not stated) as the compound, how does the zone of inhibition at 100 µg/mL [19] read?
The zone of inhibition at 100 µg/mL was 12.5 mm.

And the zone of inhibition at 100 µg/mL [20]?
The zone of inhibition at 100 µg/mL was 13 mm.

And the zone of inhibition at 100 µg/mL [21]?
Its zone of inhibition at 100 µg/mL is 11 mm.

And the zone of inhibition at 100 µg/mL [22]?
Its zone of inhibition at 100 µg/mL is 11.5 mm.

For Cc1nc(SCCO)c2c3c(sc2n1)CCc1ccccc1-3, which Activity [15] is on record?
Its Activity is 75%.

And the Activity [16]?
Its Activity is 40%.

With CCc1cc2c(OCc3cc(-c4ccc(Cl)cc4)no3)ncnc2s1 as the compound, how does the IC50 [17] read?
The IC50 was 33.3 µM.

What about the IC50 [18] of the same compound?
Its IC50 is 45.5 µM.

Which Activity [16] does the source give for Nc1nc2c(ncn2COCCO)c(=O)[nH]1 [ACYCLOVIR] here?
The Activity was 100%.

With OCCSc1ncnc2sc3c(c12)-c1ccccc1CC3 as the compound, how does the Activity [15] read?
Its Activity is 30%.

What about the Activity [16] of the same compound?
The Activity was 5%.

What does the source list for CC(=O)Nc1nc2sc(C)c(C)c2c(=O)[nH]1?
Ki [9]: > 30 µM; Ratio Ki [10]: > 57; Ki [11]: > 30 µM; Ratio Ki [12]: > 57; Ki [13]: 0.524 µM; Ratio Ki [14]: > 1

Which “NFkappaB level in liver tissue” value [23] does the source give for CCOC(=O)c1sc2ncnc(N[C@@H](CCSC)C(=O)O)c2c1C here?
Its value is 66.17 pg/mL.

What about the “COX-2 level in liver homogenate” value [24] of the same compound?
The value was 28.5 ng/mL.

And the “Serum IL-6 level” value [25]?
The value was 45.72 pg/mL.

What about the “Serum TNFalpha level” value [26] of the same compound?
Its value is 38.5 pg/mL.

For CCOC(=O)c1sc2ncnc(N[C@@H](CC(=O)O)C(=O)O)c2c1C, which “NFkappaB level in liver tissue” value [23] is on record?
Its value is 88.17 pg/mL.

What about the “COX-2 level in liver homogenate” value [24] of the same compound?
Its value is 40.5 ng/mL.

What about the “Serum IL-6 level” value [25] of the same compound?
Its value is 59.85 pg/mL.

What about the “Serum TNFalpha level” value [26] of the same compound?
The value was 51.35 pg/mL.

With NC12CC3CC(CC(C3)C1)C2 [AMANTADINE] as the compound, how does the “inhibition (INH)” value [8] read?
The value was 55%.
